Results on twelve compounds are retold here after PMC9085577, “Discovery of a Potent and Orally Active Dual GPBAR1/CysLT1R Modulator for the Treatment of Metabolic Fatty Liver Disease” (Frontiers in Pharmacology, 2022).

A word on the IC50: it is the midpoint of a concentration-inhibition curve. The term Solubility denotes the concentration that dissolves in the medium under given conditions. The term LogD denotes lipophilicity at a set pH, counting ionised and neutral species.

The structures appear in SMILES notation. ≈ marks a conversion by molar mass, not a printed value. Where two headings read alike, the source gives them in different places.

Data set [1] concerns the target T1, Human CysLT1 (LTD4) (Homo sapiens, UniProt Q9Y271).
T1 construct: Eurofins Cerep-Panlabs (France), contract assay
T1 sequence (Q9Y271 1-337): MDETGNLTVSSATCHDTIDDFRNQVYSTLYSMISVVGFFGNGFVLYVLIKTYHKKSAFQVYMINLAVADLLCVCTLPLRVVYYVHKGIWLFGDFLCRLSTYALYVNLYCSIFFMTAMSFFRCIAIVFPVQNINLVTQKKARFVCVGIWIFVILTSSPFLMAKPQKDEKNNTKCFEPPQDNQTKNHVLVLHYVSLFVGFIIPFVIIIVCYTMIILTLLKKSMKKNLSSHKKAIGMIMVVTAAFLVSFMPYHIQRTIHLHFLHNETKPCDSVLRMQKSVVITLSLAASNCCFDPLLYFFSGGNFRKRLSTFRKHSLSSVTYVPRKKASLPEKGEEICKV
The data set is described as follows: Human CysLT1 (LTD4) antagonist effect cellular functional assay (Ca2+ fluorescence, Eurofins Cerep-Panlabs). Conditions: for IC50: 0.1 nM LTD4. The class given is cell-based. On the procedure:
Human CysLT1 (LTD4) (h) (antagonist effect) Cellular Functional Assay. These assays were performed at Eurofins Cerep-Panlabs (France). The cells were suspended in DMEM buffer (Invitrogen) and then distributed in microplates at a density of 3.104 cells/well. […] Thereafter, the assay plates are positioned in a microplate reader (CellLux, PerkinElmer), which was used for the addition of the test compound or HBSS buffer, then 5 min later, 0.1 nM LTD4 or HBSS buffer (basal control), and measured the changes in fluorescence intensity, which varies proportionally to the free cytosolic Ca^2+-ion concentration.

Data set [2] deals with T2, human GPBAR1 (Homo sapiens, UniProt Q8TDU6).
T2 construct: expressed in transfected cells; host or cells: HEK-293T cells, transient transfection (Fugene HD)
T2 sequence (Q8TDU6 1-330): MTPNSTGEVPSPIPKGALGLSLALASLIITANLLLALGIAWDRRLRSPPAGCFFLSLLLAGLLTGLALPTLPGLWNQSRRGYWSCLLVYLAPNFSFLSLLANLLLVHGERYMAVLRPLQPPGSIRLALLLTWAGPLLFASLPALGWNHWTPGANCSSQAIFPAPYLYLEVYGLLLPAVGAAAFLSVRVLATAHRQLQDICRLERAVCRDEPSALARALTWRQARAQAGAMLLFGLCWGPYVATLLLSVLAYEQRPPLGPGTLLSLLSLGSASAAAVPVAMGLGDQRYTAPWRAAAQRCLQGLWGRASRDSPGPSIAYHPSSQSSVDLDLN
The data set is described as follows: GPBAR1 CRE-luciferase reporter transactivation assay in HEK-293T cells. The class given is cell-based. Conditions: HEK-293T; compound 10 µM relative to TLCA (10 μM) as 100, CRE transactivation, HEK293T cells; read-out: GPBAR1 Eff (%) maximum efficacy. The procedure:
GPBAR1. […] At 18 h post stimulations, cellular lysates were assayed for luciferase and Renilla activities using the Dual-Luciferase Reporter assay system (E1980, Promega Madison WI). Luminescence was measured using Glomax 20/20 luminometer (Promega, Madison WI). Luciferase activities were normalized with Renilla activities.
Agonistic activities of compounds on GPBAR1 were compared to TLCA, which was set as 100%.
In general terms: A reporter such as luciferase makes a cellular process visible.

Details of data set [3]: method as in Fiorillo et al., 2021. As to conditions: ref Fiorillo et al., 2021; cited from earlier work.
Details of data set [4]: method as in Fiorillo et al., 2021. Conditions: ref Fiorillo et al., 2021; cited from earlier work. The source holds these as a separate data set.
Details of data set [5]: method as in Fiorillo et al., 2021. As to conditions: aqueous, pH 7.4; ref Fiorillo et al., 2021; cited from earlier work.
On the set-up of data set [6]: method as in Fiorillo et al., 2021. As to conditions: pH 7.4; ref Fiorillo et al., 2021; cited from earlier work.
[7] abbreviates: antagonist effect, read-out: CysLT1R IC50.

On to `OCCCCOc1cccc(OCc2ccc3ccccc3n2)c1` [Compound 12, 4-(3-(quinolin-2-ylmethoxy)phenoxy)-butan-1-ol], for which the “CysLT1R efficacy (percent inhibition of the control response to 0.1 nM LTD4)” value in data set [1] (antagonist effect) was found to be 108.6 ± 1.8%. Moreover, the IC50 in data set [1] (setting [7]) is 310 ± 240 nM. The Emax in data set [2] turned out to be 12.8 ± 3.3%.
Take `O=C(O)CCCCOc1cccc(OCc2ccc3ccccc3n2)c1` [Compound 8]: the “CysLT1R efficacy (percent inhibition of the control response to 0.1 nM LTD4)” value in data set [1] (antagonist effect) was 99.6 ± 2.0%. For the same compound, the IC50 in data set [1] (setting [7]) is 900 ± 500 nM. The Emax in data set [2] turned out to be 12 ± 1.3%.
As for `OCc1cccc(-c2ccc(OCc3ccc4ccccc4n3)cc2)c1` [Compound 3, (4'-(quinolin-2-ylmethoxy)-[1,1′-biphenyl]-3-yl)-methanol], in data set [1] (antagonist effect), the “CysLT1R efficacy (percent inhibition of the control response to 0.1 nM LTD4)” value was 59 ± 3.6%. In data set [2], the Emax stood at 2.1 ± 0.06%.
As for `COC(=O)c1cccc(-c2ccc(OCc3ccc4ccccc4n3)cc2)c1` [Compound 1, Methyl 4'-(quinolin-2-ylmethoxy)-[1,1′-biphenyl]-3-carboxylate], in data set [2], the Emax turned out to be 56.9 ± 7.8%.
Same read-out and setting: for `O=C(O)c1ccc(-c2ccc(OCc3ccc4ccccc4n3)cc2)cc1` [Compound 5, 4'-(quinolin-2-ylmethoxy)-[1,1′-biphenyl]-4-carboxylic acid] the value was 36.7 ± 3%.
As for `O=C(O)CCCOc1cccc(OCc2ccc3ccccc3n2)c1` [Compound 11, 4-(3-(quinolin-2-ylmethoxy)phenoxy)-butanoic acid], in data set [1] (antagonist effect), the “CysLT1R efficacy (percent inhibition of the control response to 0.1 nM LTD4)” value came to 92.8 ± 2.3%. Moreover, the Emax in data set [2] is 18.3 ± 4.8%.
As to `COC(=O)CCCOc1cccc(OCc2ccc3ccccc3n2)c1` [Compound 10, Methyl 4-(3-(quinolin-2-ylmethoxy)phenoxy)-butanoate], in data set [1] (antagonist effect), the “CysLT1R efficacy (percent inhibition of the control response to 0.1 nM LTD4)” value came out at 92.1 ± 3.4%. In addition, the IC50 in data set [1] (setting [7]) came out at 1550 ± 430 nM. Besides, the Emax in data set [2] is 20.2 ± 4.5%.
Turning to `COC(=O)CCCCOc1cccc(OCc2ccc3ccccc3n2)c1` [Compound 7], in data set [1] (antagonist effect), the “CysLT1R efficacy (percent inhibition of the control response to 0.1 nM LTD4)” value is recorded as 76 ± 9.6%. The IC50 in data set [1] (setting [7]) was 1680 ± 280 nM. The Emax in data set [2] is 20.5 ± 2.4%.
Take `OCc1ccc(-c2ccc(OCc3ccc4ccccc4n3)cc2)cc1` [Compound 6, (4'-(quinolin-2-ylmethoxy)-[1,1′-biphenyl]-4-yl)-methanol]: the “CysLT1R efficacy (percent inhibition of the control response to 0.1 nM LTD4)” value in data set [1] (antagonist effect) is 0.8 ± 1.5%. Further, the Emax in data set [2] amounted to 64.9 ± 13%.
In the case of `CCCCCC(O)c1cccc(OCc2ccc3ccccc3n2)c1` (stereo not drawn) [REV5901, alpha-pentyl-3-[2-quinolinylmethoxy] benzyl alcohol], in data set [1] (CysLT1R IC50, antagonist effect), half-maximal inhibition (IC50) was put at 2500 ± 1200 nM. Moreover, in data set [3], the “Microsomes Clint” value is listed as 63 μl/min/mg protein and the “Microsomes t1/2” value is 37 min. In data set [4], the “S9 fraction Clint” value is listed as 40 μl/min/mg protein and the “S9 fraction t1/2” value is on record as 57 min. Moreover, in data set [5], the Solubility was 39.3 µM (≈ 13.2 µg/mL). In addition, the pH-dependent lipophilicity (LogD) in data set [6] is given as 3.1.
Consider `OCCCCCOc1cccc(OCc2ccc3ccccc3n2)c1` [Compound 9, 5-(3-(quinolin-2-ylmethoxy)phenoxy)-pentan-1-ol], for which the “CysLT1R efficacy (percent inhibition of the control response to 0.1 nM LTD4)” value in data set [1] (antagonist effect) is on record as 106.9 ± 1.6%. In data set [1] (setting [7]), the IC50 is 360 ± 580 nM. In addition, the Emax in data set [2] is 30.8 ± 7.5%.
With `COC(=O)c1ccc(-c2ccc(OCc3ccc4ccccc4n3)cc2)cc1` [Compound 4, Methyl 4'-(quinolin-2-ylmethoxy)-[1,1′-biphenyl]-4-carboxylate], the Emax in data set [2] was determined as 13.5 ± 1%.
